Measured values from ChEMBL document CHEMBL1255488, “Semimechanistic pharmacokinetic-pharmacodynamic model with adaptation development for time-kill experiments of ciprofloxacin against Pseudomonas aeruginosa” (2010).
Converted amounts (≈) assume the structure as drawn.

Assays:
Pseudomonas aeruginosa [1] = test: Antimicrobial activity against Pseudomonas aeruginosa PAO1 by microdilution method in presence of 40 ug/ml efflux-pump inhibitor PAbetaN
Pseudomonas aeruginosa [2] = test: Antimicrobial activity against Pseudomonas aeruginosa PAO7H by microdilution method
Pseudomonas aeruginosa [3] = test: Antimicrobial activity against Pseudomonas aeruginosa PAO7H by microdilution method in presence of 40 ug/ml efflux-pump inhibitor PAbetaN
Pseudomonas aeruginosa [4] = test: microbe, parasite or virus in culture; conditions: PAO1
Pseudomonas aeruginosa [5] = test: microbe, parasite or virus in culture; conditions: PAO1; remark: listed apart in the source
Description: Antimicrobial activity against 0.12 ug/ml compound pre-treated Pseudomonas aeruginosa PAO1 in presence of 0.25 ug/ml of compound during plating experiment by microdilution method

Pseudomonas aeruginosa [6] = test: microbe, parasite or virus in culture; conditions: PAO1; remark: listed apart in the source
Description: Antimicrobial activity against 0.12 ug/ml compound pre-treated Pseudomonas aeruginosa PAO1 in presence of 0.25 ug/ml of compound during plating experiment by microdilution method in presence of 40 ug/ml efflux-pump inhibitor PAbetaN

Pseudomonas aeruginosa [7] = test: microbe, parasite or virus in culture; conditions: PAO1; remark: listed apart in the source
Description: Antimicrobial activity against 0.12 ug/ml compound pre-treated Pseudomonas aeruginosa PAO1 by microdilution method

Pseudomonas aeruginosa [8] = test: microbe, parasite or virus in culture; conditions: PAO1; remark: listed apart in the source
Description: Antimicrobial activity against 0.12 ug/ml compound pre-treated Pseudomonas aeruginosa PAO1 by microdilution method in presence of 40 ug/ml efflux-pump inhibitor PAbetaN

Pseudomonas aeruginosa [9] = test: microbe, parasite or virus in culture; conditions: PAO1; remark: listed apart in the source
Description: Antimicrobial activity against 0.12 ug/ml compound pre-treated Pseudomonas aeruginosa PAO1 in presence of 0.5 ug/ml of compound during plating experiment by microdilution method in presence of 40 ug/ml efflux-pump inhibitor PAbetaN

Pseudomonas aeruginosa [10] = test: microbe, parasite or virus in culture; conditions: PAO1; remark: listed apart in the source
Description: Antimicrobial activity against 0.12 ug/ml compound pre-treated Pseudomonas aeruginosa PAO1 in presence of 1 ug/ml of compound during plating experiment by microdilution method in presence of 40 ug/ml efflux-pump inhibitor PAbetaN

Pseudomonas aeruginosa [11] = test: microbe, parasite or virus in culture; conditions: PAO1; remark: listed apart in the source
Description: Antimicrobial activity against 0.12 ug/ml compound pre-treated Pseudomonas aeruginosa PAO1 in presence of 2 ug/ml of compound during plating experiment by microdilution method in presence of 40 ug/ml efflux-pump inhibitor PAbetaN

Pseudomonas aeruginosa [12] = test: microbe, parasite or virus in culture; conditions: PAO1; remark: listed apart in the source
Description: Antimicrobial activity against 0.25 ug/ml compound pre-treated Pseudomonas aeruginosa PAO1 by microdilution method

Pseudomonas aeruginosa [13] = test: microbe, parasite or virus in culture; conditions: PAO1; remark: listed apart in the source
Description: Antimicrobial activity against 0.25 ug/ml compound pre-treated Pseudomonas aeruginosa PAO1 in presence of 0.25 ug/ml of compound during plating experiment by microdilution method

Pseudomonas aeruginosa [14] = test: microbe, parasite or virus in culture; conditions: PAO1; remark: listed apart in the source
Description: Antimicrobial activity against 0.25 ug/ml compound pre-treated Pseudomonas aeruginosa PAO1 in presence of 0.25 ug/ml of compound during plating experiment by microdilution method in presence of 40 ug/ml efflux-pump inhibitor PAbetaN

Pseudomonas aeruginosa [15] = test: microbe, parasite or virus in culture; conditions: PAO1; remark: listed apart in the source
Description: Antimicrobial activity against 0.25 ug/ml compound pre-treated Pseudomonas aeruginosa PAO1 in presence of 0.5 ug/ml of compound during plating experiment by microdilution method

Pseudomonas aeruginosa [16] = test: microbe, parasite or virus in culture; conditions: PAO1; remark: listed apart in the source
Description: Antimicrobial activity against 0.25 ug/ml compound pre-treated Pseudomonas aeruginosa PAO1 in presence of 0.5 ug/ml of compound during plating experiment by microdilution method in presence of 40 ug/ml efflux-pump inhibitor PAbetaN

Pseudomonas aeruginosa [17] = test: microbe, parasite or virus in culture; conditions: PAO1; remark: listed apart in the source
Description: Antimicrobial activity against 0.25 ug/ml compound pre-treated Pseudomonas aeruginosa PAO1 in presence of 1 ug/ml of compound during plating experiment by microdilution method

Pseudomonas aeruginosa [18] = test: microbe, parasite or virus in culture; conditions: PAO1; remark: listed apart in the source
Description: Antimicrobial activity against 0.25 ug/ml compound pre-treated Pseudomonas aeruginosa PAO1 in presence of 1 ug/ml of compound during plating experiment by microdilution method in presence of 40 ug/ml efflux-pump inhibitor PAbetaN

## O=C(O)c1cn(C2CC2)c2cc(N3CCNCC3)c(F)cc2c1=O [CIPROFLOXACIN]
Pseudomonas aeruginosa [1]
  MIC: 0.06 µg/mL
Pseudomonas aeruginosa [2]
  MIC: 1 µg/mL (≈ 3.02 µM)
Pseudomonas aeruginosa [3]
  MIC: 0.06 µg/mL
Pseudomonas aeruginosa [4]
  MIC: 0.06 µg/mL (≈ 0.181 µM)
Pseudomonas aeruginosa [5]
  MIC: 1 µg/mL (≈ 3.02 µM)
Pseudomonas aeruginosa [6]
  MIC: 0.12 µg/mL (≈ 0.362 µM)
Pseudomonas aeruginosa [7]
  MIC: 1 µg/mL (≈ 3.02 µM)
Pseudomonas aeruginosa [8]
  MIC: 0.06 µg/mL (≈ 0.181 µM)
Pseudomonas aeruginosa [9]
  MIC: 0.12 µg/mL (≈ 0.362 µM)
Pseudomonas aeruginosa [10]
  MIC: 0.12 µg/mL (≈ 0.362 µM)
Pseudomonas aeruginosa [11]
  MIC: 0.12 µg/mL (≈ 0.362 µM)
Pseudomonas aeruginosa [12]
  MIC: 1 µg/mL (≈ 3.02 µM)
Pseudomonas aeruginosa [13]
  MIC: 1 µg/mL (≈ 3.02 µM)
Pseudomonas aeruginosa [14]
  MIC: 0.12 µg/mL (≈ 0.362 µM)
Pseudomonas aeruginosa [15]
  MIC: 1 µg/mL (≈ 3.02 µM)
Pseudomonas aeruginosa [16]
  MIC: 0.12 µg/mL (≈ 0.362 µM)
Pseudomonas aeruginosa [17]
  MIC: 1 µg/mL (≈ 3.02 µM)
Pseudomonas aeruginosa [18]
  MIC: 0.12 µg/mL (≈ 0.362 µM)
